{
  "source": "patent US20070275382A1",
  "about": "“Biomarkers for the Efficacy of Somatostatin Analogue Treatment” (priority 2003, published 2007)",
  "system": "Thyroid",
  "assay": "Microarray gene expression profiling (HG-U95A), thyroid",
  "format": "in vivo, cynomolgus monkeys",
  "protocol": "Origin of tissue and processing. Male and female cynomolgus monkeys received subcutaneously pasireotide (100 μg/animal/day) or the vehicle for 14 days. On day 15, all animals were sacrificed and tissues for RNA extraction were immediately snap-frozen and kept at −80° C. until processing.\nRNA expression profiling was conducted by means of the HG-U95A gene expression probe array (Affymetrix; Santa Clara, Calif. USA), containing more than 12,600 probe sets interrogating primarily full-length human genes and also some control probe sets. The experiment was conducted according to the recommendations of the manufacturer. Briefly, total RNA was obtained by acid guanidinium thiocyanate-phenol-chloroform extraction (Trizol®, Invitrogen Life Technologies, San Diego, Calif. USA) from each frozen tissue section. The total RNA was then purified on an affinity resin (Rneasy®, Qiagen) and quantified. Double stranded cDNA was synthesized with a starting amount of approximately 5 μg full-length total RNA using the Superscript® Choice System (Invitrogen Life Technologies, Carlsbad, Calif. USA) in the presence of a T7-(dT)24 DNA oligonucleotide primer. Following synthesis, the cDNA was purified by phenol/chloroform/isoamyl alcohol extraction and ethanol precipitation. The purified cDNA was then transcribed in vitro using the BioArray® High Yield RNA Transcript Labeling Kit (ENZO, Farmingdale, N.Y. USA) in the presence of biotinylated ribonucleotides form biotin labelled cRNA. The labelled cRNA was then purified on an affinity resin (Rneasy®, Qiagen), quantified and fragmented. An amount of approximately 10 μg labelled cRNA was hybridized for 16 hours at 45° C. to an expression probe array. The array was then washed and stained twice with streptavidin-phycoerythrin (Molecular Probes,) using the GeneChip® Fluidics Workstation 400 (Affymetrix, Santa Clara, Calif. USA). The array was then scanned twice using a confocal laser scanner (GeneArray® Scanner, Agilent, Palo Alto, Calif. USA) resulting in one scanned image. This resulting “.dat-file” was processed using the MAS4 program (Affymetrix) into a “.cel-file”. The “.cel file” was captured and loaded into the Affymetrix GeneChip® Laboratory Information Management System (LIMS). The LIMS database is connected to a UNIX Sun Solaris server through a network filing system that allows for the average intensities for all probes cells (CEL file) to be downloaded into an Oracle database (NPGN). Raw data was converted to expression levels using a “target intensity” of 150. The data were evaluated for quality control and loaded in the GeneSpring® software 4.2.4 (Silicon Genetics, Calif. USA) for analysis.\nOn the human Affymetrix HGU95Av2 chip, probe sets for individual genes contain 20 oligonucleotide pairs, each composed of a “perfect match” 25-mer and a “mismatch” 25-mer differing from the “perfect” match oligonucleotide at a single base. After probe labelling, hybridization, and laser scanning, the expression level was estimated by averaging the differences in signal intensity measured by oligonucleotide pairs of a given probe (AvgDiff value). The fold changes and directions were calculated for selected genes, from the differences of the AvgDiff values between controls and treated.\nTo identify genes that were impacted by pasireotide, the dataset was initially filtered to exclude in a first wave of analysis, genes whose values were systematically in the lower expression ranges where the experimental noise is high (at least 80 in a number of experiments corresponding to the smallest number of replicas of any experimental point). In a second round of selection a threshold p-value of 0.05 (based on a t-test) identified differences between treated and control based on a two component error model (Global Error Model) and, whenever possible, with a stepdown correction for multi-hypothesis testing (Benjamini and Hochberg false discovery rate). […]",
  "key": {"[1]": {"details": "↑ increase, treated vs controls"}, "[2]": {"details": "↓ decrease, treated vs controls"}},
  "note": "*1 amine or outer side, *2 acyl side, *3 side chain or, on linkers, in order; H or OH if unused. Where a SMILES comes first, the peptide text is derived from it. Side-chain parts run from the residue outwards. [ ]: non-standard residue; d: D form. The star is where a group is joined. Ethylenediamine = C(CN[*:2])N[*:1]; Hyp = O=C(O)[CH]1C[CH](O)CN1; Phg = N[CH](C(=O)O)c1ccccc1; CO = O=C([*:1])[*:2]; Bn = c1ccc(C*)cc1",
  "data": [
    {"smiles": "NCCCCC1NC(=O)C(Cc2c[nH]c3ccccc23)NC(=O)C(c2ccccc2)NC(=O)C2CC(OC(=O)NCCN)CN2C(=O)C(Cc2ccccc2)NC(=O)C(Cc2ccc(OCc3ccccc3)cc2)NC1=O", "note": "(stereo not drawn) [Pasireotide, cyclo[4-(NH2—C2H4—NH—CO—O)Pro-Phg-DTrp-Lys-Tyr(4-Bzl)-Phe]] (cyclo(F[Hyp]([CO-Ethylenediamine])[Phg]WKY(Bn)); configuration not given here)", "values": [
      {"measurement": "IGF-1 expression level, AvgDiff (range)", "setting": "0.1 mg/animal/14day", "result": "58 (20 to 114)"},
      {"measurement": "Endothelial differentiation-related factor 1 RNA expression change", "setting": "direction only, treated vs controls", "result": "related factor 1 ↑"},
      {"measurement": "CD2 antigen (cytoplasmic tail)-binding protein 2 RNA expression fold change", "setting": "[1]", "result": "↑ x3.5"},
      {"measurement": "Cadherin 13, H-cadherin (heart) RNA expression fold change", "setting": "[1]", "result": "↑ x2"},
      {"measurement": "Cannabinoid receptor 2 (macrophage) RNA expression fold change", "setting": "[1]", "result": "↑ x3"},
      {"measurement": "GABA (B) receptor 1, isoform a precursor RNA expression fold change", "setting": "[1]", "result": "↑ x2.5"},
      {"measurement": "IFNα-inducible protein 27 RNA expression fold change", "setting": "[1]", "result": "protein 27 ↑ x3"},
      {"measurement": "IFNγ-inducible protein 30 RNA expression fold change", "setting": "[1]", "result": "↑ x3.5"},
      {"measurement": "PDGF-associated Protein RNA expression fold change", "setting": "[1]", "result": "Protein ↑ x2"},
      {"measurement": "PDGFR β RNA expression fold change", "setting": "[1]", "result": "↑ x2"},
      {"measurement": "Phosphatidyl ethanolamine N-methyl-transferase RNA expression fold change", "setting": "[1]", "result": "↑ x2"},
      {"measurement": "Pro-platelet basic protein (includes platelet basic protein, β-thromboglobulin, connective tissue-activating peptide III, neu) 2 RNA expression fold change", "setting": "[1]", "result": "2 ↑ x3.5"},
      {"measurement": "RANTES RNA expression fold change", "setting": "[1]", "result": "↑ x10.5"},
      {"measurement": "Solute carrier family 21 (PG transporter), member 2 RNA expression fold change", "setting": "[1]", "result": "member 2 ↑ x2"},
      {"measurement": "TNF (ligand) superfamily, member 10 RNA expression fold change", "setting": "[1]", "result": "↑ x2"},
      {"measurement": "Thrombospondin 2 RNA expression fold change", "setting": "[1]", "result": "spondin 2 ↑ x2"},
      {"measurement": "VWF precursor RNA expression fold change", "setting": "[1]", "result": "precursor ↑ x2"},
      {"measurement": "ATPase, Ca++ transporting, cardiac muscle, fast twitch 1 RNA expression fold change", "setting": "[2]", "result": "↓ x4.5"},
      {"measurement": "Adenylate cyclase activating polypeptide precursor RNA expression fold change", "setting": "[2]", "result": "↓ x1.5"},
      {"measurement": "Adrenergic, α-2C-, receptor RNA expression fold change", "setting": "[2]", "result": "↓ x2.5"},
      {"measurement": "Bcl-2 binding component 3 RNA expression fold change", "setting": "[2]", "result": "↓ x2"},
      {"measurement": "Brain cannabinoid receptor 1 RNA expression fold change", "setting": "[2]", "result": "↓ x2"},
      {"measurement": "CD2 antigen (p50), sheep red blood cell receptor RNA expression fold change", "setting": "[2]", "result": "↓ x7.5"},
      {"measurement": "COL1A1 and PDGFB fusion transcript RNA expression fold change", "setting": "[2]", "result": "transcript ↓ x6"},
      {"measurement": "Calcium/calmodulin dependent protein kinase 1 RNA expression fold change", "setting": "[2]", "result": "↓ x2"},
      {"measurement": "Calcium/calmodulin-dependent PK IV RNA expression fold change", "setting": "[2]", "result": "IV ↓ x7.5"},
      {"measurement": "Calmodulin-dependent PK IV (CaM-kinase IV) RNA expression fold change", "setting": "[2]", "result": "IV) ↓ x7.5"},
      {"measurement": "Cdc-like 5 (cholinesterase-related cell division controller) RNA expression fold change", "setting": "[2]", "result": "↓ x2"},
      {"measurement": "Cdk 5, regulatory subunit 1 (p35) RNA expression fold change", "setting": "[2]", "result": "↓ x5"},
      {"measurement": "Chemokine (C-X-C motif), receptor 4 (fusin) RNA expression fold change", "setting": "[2]", "result": "(fusin) ↓ x3"},
      {"measurement": "Cholecystokinin B receptor RNA expression fold change", "setting": "[2]", "result": "B receptor ↓ x3"},
      {"measurement": "Cyclin B2 RNA expression fold change", "setting": "[2]", "result": "↓ x2.5"},
      {"measurement": "DAG 1 kinase, α (80 kD) RNA expression fold change", "setting": "[2]", "result": "↓ x4"},
      {"measurement": "EGF-like module containing, mucin-like, hormone receptor-like sequence 1 RNA expression fold change", "setting": "[2]", "result": "↓ x5"},
      {"measurement": "FKBP-associated protein RNA expression fold change", "setting": "[2]", "result": "protein ↓ x2.5"},
      {"measurement": "Flt3 ligand RNA expression fold change", "setting": "[2]", "result": "Flt3 ligand ↓ x4.5"},
      {"measurement": "Fms-related tyrosine kinase 1(VEGF/vascular permeability factor receptor) RNA expression fold change", "setting": "[2]", "result": "↓ x2"},
      {"measurement": "GABA (A) receptor, γ2 precursor RNA expression fold change", "setting": "[2]", "result": "↓ x1.5"},
      {"measurement": "Gastric inhibitory polypeptide 1 receptor RNA expression fold change", "setting": "[2]", "result": "receptor ↓ x2"},
      {"measurement": "Glutamate receptor, metabotropic 2 precursor RNA expression fold change", "setting": "[2]", "result": "precursor ↓ 3.5"},
      {"measurement": "Growth arrest-specific 1 RNA expression fold change", "setting": "[2]", "result": "↓ x2.5"},
      {"measurement": "IFNγ responsive transcript RNA expression fold change", "setting": "[2]", "result": "transcript ↓ x1.5"},
      {"measurement": "IGF-1 RNA expression fold change", "setting": "[2]", "result": "IGF-1 ↓ x1.5"},
      {"measurement": "IL2-inducible T-cell kinase RNA expression fold change", "setting": "[2]", "result": "cell kinase ↓ x12"},
      {"measurement": "IL9 receptor RNA expression fold change", "setting": "[2]", "result": "↓ x2"},
      {"measurement": "IP3 receptor type 3 RNA expression fold change", "setting": "[2]", "result": "↓ x1.5"},
      {"measurement": "K+ voltage-gated channel, shaker-related subfamily, member 3 RNA expression fold change", "setting": "[2]", "result": "↓ x4.5"},
      {"measurement": "LTB4 receptor (chemokine receptor-like 1) RNA expression fold change", "setting": "[2]", "result": "↓ x1.5"},
      {"measurement": "Lymphocyte specific protein tyrosine kinase RNA expression fold change", "setting": "[2]", "result": "↓ x4"},
      {"measurement": "P56lck RNA expression fold change", "setting": "[2]", "result": "P56lck ↓ x18"},
      {"measurement": "PDGFR α RNA expression fold change", "setting": "[2]", "result": "↓ x3"},
      {"measurement": "PIP 5-phosphatase type IV RNA expression fold change", "setting": "[2]", "result": "x3"},
      {"measurement": "PLC, γ 1 (formerly subtype 148) RNA expression fold change", "setting": "[2]", "result": "148) ↓ x2"},
      {"measurement": "RAG1 RNA expression fold change", "setting": "[2]", "result": "RAG1 ↓ x18"},
      {"measurement": "RAG2 RNA expression fold change", "setting": "[2]", "result": "RAG2 ↓ x5"},
      {"measurement": "SH2 domain protein 1A, Duncan's disease (lymphoproliferative syndrome) RNA expression fold change", "setting": "[2]", "result": "↓ x7.5"},
      {"measurement": "Signalling lymphocytic activation molecule RNA expression fold change", "setting": "[2]", "result": "molecule ↓ x4.5"},
      {"measurement": "TCR ζ chain precursor RNA expression fold change", "setting": "[2]", "result": "precursor ↓ x5.5"},
      {"measurement": "TSHR RNA expression fold change", "setting": "[2]", "result": "TSHR ↓ x2"},
      {"measurement": "Transcription factor 7 (T-cell specific, HMG-box) RNA expression fold change", "setting": "[2]", "result": "box) ↓ x16.5"},
      {"measurement": "c-AMP responsive element binding protein 1 RNA expression fold change", "setting": "[2]", "result": "protein 1 ↓ x2"}
    ]}
  ]
}
